Source: PMC6677322, “Dafachronic acid promotes larval development in Haemonchus contortus by modulating dauer signalling and lipid metabolism” (PLoS Pathogens, 2019)

Experiments:
[1] = target: Hc-DAF-12 (Haemonchus contortus, UniProt A0A650FMZ7); test: luciferase reporter assay in HEK293 cells transfected with Hc-DAF-12; format: cell-based
[2] = target: T1, Ac-DAF-12 (Ancylostoma caninum, UniProt A0A368G7M4); test: luciferase reporter assay in HEK293 cells; format: cell-based
T1 construct: gene ANCCAN_15412
T1 sequence (A0A368G7M4 entry or part of it): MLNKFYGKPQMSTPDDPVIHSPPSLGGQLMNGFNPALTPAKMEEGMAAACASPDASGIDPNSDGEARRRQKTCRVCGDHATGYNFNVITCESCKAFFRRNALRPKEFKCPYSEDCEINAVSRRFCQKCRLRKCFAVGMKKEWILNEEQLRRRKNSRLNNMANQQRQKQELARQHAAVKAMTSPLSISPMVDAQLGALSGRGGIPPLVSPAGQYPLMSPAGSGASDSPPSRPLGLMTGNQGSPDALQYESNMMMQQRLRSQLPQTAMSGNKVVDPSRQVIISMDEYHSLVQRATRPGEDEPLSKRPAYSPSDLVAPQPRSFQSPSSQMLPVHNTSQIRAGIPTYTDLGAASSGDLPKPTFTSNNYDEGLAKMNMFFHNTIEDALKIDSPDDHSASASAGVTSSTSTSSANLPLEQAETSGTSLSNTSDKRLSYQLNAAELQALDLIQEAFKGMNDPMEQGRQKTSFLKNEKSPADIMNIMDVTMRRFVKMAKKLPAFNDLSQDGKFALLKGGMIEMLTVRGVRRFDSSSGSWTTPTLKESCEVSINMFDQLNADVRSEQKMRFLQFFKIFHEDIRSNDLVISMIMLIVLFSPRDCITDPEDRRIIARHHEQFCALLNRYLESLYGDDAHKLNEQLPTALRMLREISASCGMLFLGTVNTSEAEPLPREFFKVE

Hc-DAF-12, sequence (A0A650FMZ7 entry or part of it): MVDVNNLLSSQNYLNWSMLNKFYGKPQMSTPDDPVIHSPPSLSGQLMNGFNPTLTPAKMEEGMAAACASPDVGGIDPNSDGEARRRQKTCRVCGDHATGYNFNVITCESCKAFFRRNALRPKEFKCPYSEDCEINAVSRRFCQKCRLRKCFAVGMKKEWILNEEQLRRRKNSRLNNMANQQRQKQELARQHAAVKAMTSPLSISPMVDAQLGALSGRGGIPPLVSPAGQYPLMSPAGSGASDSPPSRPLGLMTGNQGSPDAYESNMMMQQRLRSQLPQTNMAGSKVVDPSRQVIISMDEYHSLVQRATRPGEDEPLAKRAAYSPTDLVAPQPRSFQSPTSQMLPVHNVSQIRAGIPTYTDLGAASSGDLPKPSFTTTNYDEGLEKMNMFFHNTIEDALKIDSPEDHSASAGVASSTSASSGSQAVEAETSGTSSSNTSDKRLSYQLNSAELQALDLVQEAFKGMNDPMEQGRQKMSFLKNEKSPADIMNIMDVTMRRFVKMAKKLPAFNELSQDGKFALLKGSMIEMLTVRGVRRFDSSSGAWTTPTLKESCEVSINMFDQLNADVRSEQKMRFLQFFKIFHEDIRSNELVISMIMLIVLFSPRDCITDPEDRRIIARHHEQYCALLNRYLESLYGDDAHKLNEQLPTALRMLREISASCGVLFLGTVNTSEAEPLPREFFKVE

C[C@H](CCC[C@H](C)C(=O)O)[C@H]1CC[C@H]2C3=CC[C@H]4CC(=O)CC[C@]4(C)[C@H]3CC[C@]12C [(25S)-Δ7-DA]
EC50 [1]: 12.5 nM
EC50 [2]: 12.8 nM
